Results from patent US12435079B2, “Bruton's tyrosine kinase inhibitors” (priority 2019, dated 2025).

biological target: T1, BTK (Homo sapiens, UniProt Q06187); assay: BTK Kinase Assay (ADP-Glo); type: biochemical; conditions: BTK enzyme, 50 μM ATP, one hour incubation, ADP-Glo luminescence; read-out: BTK Inhibition
T1 construct: purchased Promega V2941
Method: The BTK assay is performed using the BTK Kinase Enzyme System (Promega; Catalog #: V2941) and ADP-Glo™ Kinase Assay kit (Promega; Catalog #: V9101). Measurement were performed in a reaction volume of 5 μL using 384-well assay plate (Corning; Catalog #: 3570). 6 ng BTK enzyme, inhibitor or 1% DMSO, 1 μg Poly(Glu4, Tyr1) peptide, and 50 μM ATP were incubated in a reaction buffer composed of 40 mM Tris-Cl (pH7.5), 20 mM MgCl2, 0.1 mg/mL BSA, 50 μM DTT and 2 mM MnCl2 for one hour. ADP was detected as described in ADP-Glo™ Kinase Assay kit using 5 μl of ADP-Glo™ Reagent and 10 μl of Kinase Detection Reagent. Luminescence was recorded using a multimode plate reader (EnVision® Multilabel Reader, Perkin Elmer). There is a linear relationship between the luminescent signal and the amount of ADP in the reaction buffer. For each compound, enzyme activity was measured at various concentrations of compound, Negative control reactions were performed in the absence of inhibitor in three replicates and six no enzyme controls were used to determine baseline luminescence levels. Dose response curve were generated to determine the concentration required for IC50 of BTK activity.
The compound numbers correspond to the compound numbers in previous Tables. Compounds having an activity designated as “A” provided an IC 50≤10 nM; Compounds having an activity designated as “B” provided an IC50 10-100 nM; Compounds having an activity designated as “C” provided an IC50 100-1000 nM; Compounds having an activity designated as “D” provided an IC50 1000-10000 nM; Compounds having an activity designated as “E” provided an IC50≥10000 nM.

T1 sequence (Q06187 whole entry): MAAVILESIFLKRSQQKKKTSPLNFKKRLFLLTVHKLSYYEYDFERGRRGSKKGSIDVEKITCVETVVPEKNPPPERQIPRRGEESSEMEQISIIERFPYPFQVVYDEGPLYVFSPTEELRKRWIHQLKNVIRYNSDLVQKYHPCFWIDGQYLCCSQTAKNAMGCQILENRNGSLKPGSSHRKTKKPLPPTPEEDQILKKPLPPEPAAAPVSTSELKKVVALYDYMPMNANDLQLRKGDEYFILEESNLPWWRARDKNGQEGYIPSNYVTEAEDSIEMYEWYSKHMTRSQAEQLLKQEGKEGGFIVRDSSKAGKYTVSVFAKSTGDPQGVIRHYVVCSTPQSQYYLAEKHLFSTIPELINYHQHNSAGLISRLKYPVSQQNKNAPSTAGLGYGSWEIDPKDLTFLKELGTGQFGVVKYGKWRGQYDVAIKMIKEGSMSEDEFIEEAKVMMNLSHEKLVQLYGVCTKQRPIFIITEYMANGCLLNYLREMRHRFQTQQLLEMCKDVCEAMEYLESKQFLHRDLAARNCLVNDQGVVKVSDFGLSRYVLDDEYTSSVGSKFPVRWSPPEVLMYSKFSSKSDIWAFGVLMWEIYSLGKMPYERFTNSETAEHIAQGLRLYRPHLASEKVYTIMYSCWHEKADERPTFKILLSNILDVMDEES

Structure (SMILES) | IC50
Nc1nccn2c(C3CCC(O)CC3)nc(-c3ccc(Oc4cccc(Cl)c4F)cc3)c12 (stereo not drawn) [Compound 6, 4-{8-Amino-1-[4-(3-chloro-2-fluoro-phenoxy)-phenyl]-imidazo[1,5-a]pyrazin-3-yl}-cyclohexanol] | ≤ 10 nM
Nc1nccn2c(C3CCC(O)CC3)nc(-c3ccc(Oc4cccc(Cl)c4)cc3)c12 (stereo not drawn) [Compound 7] | 10 to 100 nM
Cc1cccc(Oc2ccc(-c3nc(C4CCC(O)CC4)n4ccnc(N)c34)cc2)c1 (stereo not drawn) [Compound 8, 4-[8-Amino-1-(4-m-tolyloxy-phenyl)-imidazo[1,5-a]pyrazin-3-yl]-cyclohexanol] | ≤ 10 nM
COc1cccc(Oc2ccc(-c3nc(C4CCC(O)CC4)n4ccnc(N)c34)cc2)c1C (stereo not drawn) [Compound 9, 4-{8-Amino-1-[4-(3-methoxy-2-methyl-phenoxy)-phenyl]-imidazo[1,5-a]pyrazin-3-yl}-cyclohexanol] | 10 to 100 nM
COc1ccccc1C(=O)NCc1ccc(-c2nc(C3CCC(O)CC3)n3ccnc(N)c23)cc1 (stereo not drawn) [Compound 11] | ≤ 10 nM

Results, then the compound that gave them:

IC50 | Structure (SMILES)
≤ 10 nM | Nc1nccn2c(C3CCCC(O)C3)nc(-c3ccc(Oc4ccccc4)cc3)c12 (stereo not drawn) [Compound 1, 3-[8-Amino-1-(4-phenoxy-phenyl)-imidazo[1,5-a]pyrazin-3-yl]-cyclohexanol]
≤ 10 nM | COc1cccc(Oc2ccc(-c3nc(C4CCC(O)CC4)n4ccnc(N)c34)cc2)c1F (stereo not drawn) [Compound 2, 4-{8-Amino-1-[4-(2-fluoro-3-methoxy-phenoxy)-phenyl]-imidazo[1,5-a]pyrazin-3-yl}-cyclohexanol]
≤ 10 nM | COc1cccc(Oc2ccc(-c3nc([C@@H]4CCC[C@@H](O)C4)n4ccnc(N)c34)cc2)c1F [Compound 4]
≤ 10 nM | Nc1nccn2c1c(-c1ccc(Oc3ccccc3)cc1)nc2[C@H]1CC[C@H](O)CC1 [Compound 5, 4-[8-Amino-1-(4-phenoxy-phenyl)-imidazo[1,5-a]pyrazin-3-yl]-cyclohexanol]
